From US9453014B2, “Cyclic amide derivatives as inhibitors of 11-β-hydroxysteroid dehydrogenase and uses thereof” (CONNEXIOS LIFE SCIENCES PVT. LTD., priority 2011, dated 2016)
pIC50: −log10 of the molar value.

What follows are compounds tested against T1, human full length HSD11 β 1 (Homo sapiens, UniProt P28845) (assay: In Vitro HSD11β1 Inhibition Assay). Conditions: CHO cells transiently expressing human HSD11β1; 200 nM cortisone+500 uM NADPH overnight; cortisone to cortisol by LC/MS-MS; read-out: 11βHSD1 (IC50).
T1 construct: transient expression of human full length HSD11 β 1 expression vector; host or cells: CHO cells (transient transfection)
T1 sequence (P28845 whole entry): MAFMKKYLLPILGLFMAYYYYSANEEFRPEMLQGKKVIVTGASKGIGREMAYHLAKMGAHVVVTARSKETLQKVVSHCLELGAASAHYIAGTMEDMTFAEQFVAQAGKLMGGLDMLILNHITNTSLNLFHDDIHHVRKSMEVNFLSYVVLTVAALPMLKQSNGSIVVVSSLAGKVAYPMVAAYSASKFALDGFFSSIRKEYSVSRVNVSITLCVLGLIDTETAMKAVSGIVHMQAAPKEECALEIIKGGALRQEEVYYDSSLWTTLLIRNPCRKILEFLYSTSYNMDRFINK
Assay type: cell-based
Procedure: In Vitro HSD11β1 Inhibition Assay:
CHO cells were maintained in Dulbecco's modified Eagle's medium/nutrient mixture F-12 containing 5% fetal bovine serum (v/v) and 2 mM glutamine. Cells were cultured at 37° C. with 5% CO2. For transient expression of human full length HSD11 β 1 expression vector (OriGene Technologies), cells were seeded at a density of 2×10^5 cells/well in a 6-well plate. Transfection was done using Turbofectin8 reagent (OriGene Technologies), according to the protocol provided with the reagent. After 24 hours post-transfection, cells were trypsinized and pooled together before they were re-seeding to 96-well plate at a density of 40000 cells/well. 24 hours after re-seeding, cells were incubated with 200 nM cortisone+500 uM NADPH (or along with small molecule inhibitors) overnight. The enzymatic activity or inhibition of enzyme activity was measured by estimating the conversion of cortisone to cortisol by LC/MS-MS method. The IC50 in nM was calculated from an 8 point log scale of concentration versus inhibition.

Cn1cc(CCC(=O)N2CCO[C@@H]3CCCC[C@H]32)c2ccccc21 (relative stereo) [Compound 63, 3-(1-methyl-1H-indol-3-yl)-1-[(trans-4a,8a)-octahydro-4H-1,4-benzoxazin-4-yl]propan-1-one] was tested. Which pIC50 did it give?
The pIC50 was less than 6.60.

How did the pIC50 turn out when Cc1cccc2c1c(CCC(=O)N1CCO[C@@H]3CCCC[C@@H]31)cn2C (relative stereo) [Compound 66, 3-(1,4-dimethyl-1H-indol-3-yl)-1-[cis-(4a,8a)-octahydro-4H-1,4-benzoxazin-4-yl]propan-1-one] was run?
The pIC50 was greater than 7.00.

O=C(CCc1nc2ccccc2s1)N1CCO[C@@H]2CCCC[C@H]21 (relative stereo) [Example 79, 3-(1,3-benzothiazol-2-yl)-1-[trans-(4a,8a)-octahydro-4H-1,4-benzoxazin-4-yl]propan-1-one] was tested. Which pIC50 did it give?
The pIC50 was less than 6.60.

O=C(CCc1c[nH]c2ccccc12)N1CCCC2CCCCC21 (single isomer, unassigned) [Compound 52, 3-(1H-indol-3-yl)-1-(octahydroquinolin-1(2H)-yl)propan-1-one] was tested. Which pIC50 did it give?
The pIC50 was less than 6.60.

With O=C(CCc1c[nH]c2ccccc12)N1CCCC2CCCCC21 (single isomer, unassigned) [Compound 53, 3-(1H-indol-3-yl)-1-(octahydroquinolin-1(2H)-yl)propan-1-one] as the compound, how does the pIC50 read?
Its pIC50 is greater than 7.00.

With CC12CCCCC1N(C(=O)CCc1c[nH]c3ccccc13)CCC2 (single isomer, unassigned) [Compound 55, 3-(1H-indol-3-yl)-1-(4a-methyloctahydroquinolin-1(2H)-yl)propan-1-one] as the compound, how does the pIC50 read?
The pIC50 was greater than 7.00.

With CC12CCCCC1N(C(=O)CCc1c[nH]c3ccccc13)CCC2 (single isomer, unassigned) [Compound 56, 3-(1H-indol-3-yl)-1-(4a-methyloctahydroquinolin-1(2H)-yl)propan-1-one] as the compound, how does the pIC50 read?
The pIC50 was 6.70 to 6.82.

Cc1cccc2c1c(CCC(=O)N1CCO[C@@H]3CCCC[C@H]31)cn2C (single isomer, unassigned) [Compound 62, 3-(1,4-dimethyl-1H-indol-3-yl)-1-[(trans-4a,8a)-octahydro-4H-1,4-benzoxazin-4-yl]propan-1-one] was tested. Which pIC50 did it give?
Its pIC50 is less than 6.60.

With Cc1cccc2c1c(CCC(=O)N1CCO[C@@H]3CCCC[C@H]31)cn2C (single isomer, unassigned) [Compound 65, 3-(1,4-dimethyl-1H-Indol-3-yl)-1-[trans-(4a,8a)-octahydro-4H-1,4-benzoxazin-4-yl]propan-1-one] as the compound, how does the pIC50 read?
The pIC50 was less than 6.60.

CC(CC(=O)N1CCCC2C(C(=O)O)CCCC21)c1c[nH]c2cccc(C3CC3)c12 (single isomer, unassigned) [Compound 195, 1-[3-(4-cyclopropyl-1H-indol-3-yl)butanoyl]decahydroquinoline-5-carboxylic acid] was tested. Which pIC50 did it give?
The pIC50 was greater than 7.00.

How did the pIC50 turn out when CC(CC(=O)N1CCCC2C(C(=O)O)CCCC21)c1c[nH]c2cccc(C3CC3)c12 (single isomer, unassigned) [Compound 196, 1-[3-(4-cyclopropyl-1H-indol-3-yl)butanoyl]decahydroquinoline-5-carboxylic acid] was run?
Its pIC50 is greater than 7.00.

How did the pIC50 turn out when CC(CC(=O)N1CCCC2C(C(=O)O)CCCC21)c1c[nH]c2cccc(C3CC3)c12 (single isomer, unassigned) [Compound 198, 1-[3-(4-cyclopropyl-1H-indol-3-yl)butanoyl]decahydroquinoline-5-carboxylic acid] was run?
The pIC50 was 6.82 to 7.00.

CC(CC(=O)N1CCC[C@H]2[C@H](C(=O)O)CCC[C@@H]21)c1c[nH]c2cccc(C3CC3)c12 (single isomer, unassigned) [Compound 199, 1-[3-(4-cyclopropyl-1H-indol-3-yl)butanoyl]decahydroquinoline-5-carboxylic acid] was tested. Which pIC50 did it give?
The pIC50 was greater than 7.00.

With CC(CC(=O)N1CCCC2C(C(=O)O)CCCC21)c1c[nH]c2cccc(C3CC3)c12 (single isomer, unassigned) [Compound 200, 1-[3-(4-cyclopropyl-1H-Indol-3-yl)butanoyl]decahydroquinoline-5-carboxylic acid] as the compound, how does the pIC50 read?
The pIC50 was greater than 7.00.

How did the pIC50 turn out when CC(CC(=O)N1CCCC2C(C(=O)O)CCCC21)c1cn(C)c2cccc(C3CC3)c12 (single isomer, unassigned) [Compound 212, 1-[3-(4-cyclopropyl-1-methyl-1H-indol-3-yl)butanoyl]decahydroquinoline-5-carboxylic acid] was run?
Its pIC50 is less than 6.60.

CC(CC(=O)N1CCCC2C(C(=O)O)CCCC21)c1cn(C)c2cccc(C3CC3)c12 (single isomer, unassigned) [Compound 213, 1-[3-(4-cyclopropyl-1-methyl-1H-indol-3-yl)butanoyl]decahydroquinoline-5-carboxylic acid] was tested. Which pIC50 did it give?
Its pIC50 is less than 6.60.

With CC(CC(=O)N1CCCC2C(C(=O)O)CCCC21)c1cn(C)c2cccc(C3CC3)c12 (single isomer, unassigned) [Compound 214, 1-[3-(4-cyclopropyl-1-methyl-1H-indol-3-yl)butanoyl]decahydroquinoline-5-carboxylic acid] as the compound, how does the pIC50 read?
Its pIC50 is greater than 7.00.

With O=C(O)C1CCCC2C1CCCN2C(=O)CC(c1cccs1)c1c[nH]c2cccc(Cl)c12 (single isomer, unassigned) [Compound 218, 1-[3-(4-chloro-1H-indol-3-yl)-3-(thiophen-2-yl)propanoyl]decahydroquinoline-5-carboxylic acid] as the compound, how does the pIC50 read?
The pIC50 was greater than 7.00.

With O=C(O)C1CCCC2C1CCCN2C(=O)CC(c1cccs1)c1c[nH]c2cccc(Cl)c12 (single isomer, unassigned) [Compound 219, 1-[3-(4-chloro-1H-indol-3-yl)-3-(thiophen-2-yl)propanoyl]decahydroquinoline-5-carboxylic acid] as the compound, how does the pIC50 read?
Its pIC50 is less than 6.60.

CC(CC(=O)N1CCCC2C(C(=O)O)CCCC21)c1c[nH]c2cccc(-c3ccco3)c12 (single isomer, unassigned) [Compound 223, 1-{3-[4-(furan-2-yl)-1H-indol-3-yl]butanoyl}decahydroquinoline-5-carboxylic acid] was tested. Which pIC50 did it give?
The pIC50 was 6.82 to 7.00.

CC(CC(=O)N1CCCC2C(C(=O)O)CCCC21)c1c[nH]c2cccc(-c3ccco3)c12 (single isomer, unassigned) [Compound 224, 1-{3-[4-(furan-2-yl)-1H-indol-3-yl]butanoyl}decahydroquinoline-5-carboxylic acid] was tested. Which pIC50 did it give?
The pIC50 was greater than 7.00.

O=C(O)C1CCN(C(=O)CC(c2ccc(F)cc2)c2c[nH]c3cccc(F)c23)C2CCCCC12 (single isomer, unassigned) [Compound 225, 1-[3-(4-fluoro-1H-indol-3-yl)-3-(4-fluorophenyl)propanoyl]decahydroquinoline-4-carboxylic acid] was tested. Which pIC50 did it give?
The pIC50 was greater than 7.00.

O=C(O)C1CCN(C(=O)CC(c2ccc(F)cc2)c2c[nH]c3cccc(F)c23)C2CCCCC12 (single isomer, unassigned) [Compound 226, 1-[3-(4-fluoro-1H-indol-3-yl)-3-(4-fluorophenyl)propanoyl]decahydroquinoline-4-carboxylic acid] was tested. Which pIC50 did it give?
The pIC50 was less than 6.60.

With CC(CC(=O)N1CCCC2C(C(=O)O)CCCC21)c1c[nH]c2cccc(-c3ccc(F)o3)c12 (single isomer, unassigned) [Compound 248, 1-{3-[4-(5-fluorofuran-2-yl)-1H-indol-3-yl]butanoyl}decahydroquinoline-5-carboxylic acid] as the compound, how does the pIC50 read?
The pIC50 was greater than 7.00.

With CC(CC(=O)N1CCCC2C(C(=O)O)CCCC21)c1c[nH]c2cccc(-c3ccc(F)o3)c12 (single isomer, unassigned) [Compound 249, 1-{3-[4-(5-fluorofuran-2-yl)-1H-indol-3-yl]butanoyl}decahydroquinoline-5-carboxylic acid] as the compound, how does the pIC50 read?
Its pIC50 is 6.60 to 6.70.

How did the pIC50 turn out when CC(CC(=O)N1CCCC2C(C(=O)O)CCCC21)c1c[nH]c2cccc(-c3ccc(F)o3)c12 (single isomer, unassigned) [Compound 250, 1-{3-[4-(5-fluorofuran-2-yl)-1H-indol-3-yl]butanoyl}decahydroquinoline-5-carboxylic acid] was run?
The pIC50 was greater than 7.00.

CC(CC(=O)N1CCCC2C(C(=O)O)CCCC21)c1c[nH]c2cccc(-c3ccc(F)o3)c12 (single isomer, unassigned) [Compound 251, 1-{3-[4-(5-fluorofuran-2-yl)-1H-indol-3-yl]butanoyl}decahydroquinoline-5-carboxylic acid] was tested. Which pIC50 did it give?
The pIC50 was greater than 7.00.

How did the pIC50 turn out when CC(CC(=O)N1CCCC2C(C(=O)O)CCCC21)c1c[nH]c2cccc(-c3ccc(F)cc3)c12 (single isomer, unassigned) [Compound 255, 1-{3-[4-(4-fluorophenyl)-1H-indol-3-yl]butanoyl}decahydroquinoline-5-carboxylic acid] was run?
Its pIC50 is greater than 7.00.

CC(CC(=O)N1CCCC2C(C(=O)O)CCCC21)c1c[nH]c2cccc(-c3ccc(F)cc3)c12 (single isomer, unassigned) [Compound 256, 1-{3-[4-(4-fluorophenyl)-1H-indol-3-yl]butanoyl}decahydroquinoline-5-carboxylic acid] was tested. Which pIC50 did it give?
Its pIC50 is less than 6.60.

CC(C)C(CC(=O)N1CCCC2(C)CCCCC12)c1c[nH]c2cccc(F)c12 (single isomer, unassigned) [Example 115, 3-(4-fluoro-1H-indol-3-yl)-4-methyl-1-(4a-methyloctahydroquinolin-1(2H)-yl)pentan-1-one] was tested. Which pIC50 did it give?
Its pIC50 is less than 6.60.

CC(C)C(CC(=O)N1CCCC2(C)CCCCC12)c1c[nH]c2cccc(F)c12 (single isomer, unassigned) [Example 116, 3-(4-fluoro-1H-indol-3-yl)-4-methyl-1-(4a-methyloctahydroquinolin-1(2H)-yl)pentan-1-one] was tested. Which pIC50 did it give?
The pIC50 was less than 6.60.
